{"source": "patent US12263139B2", "about": "“Use of cannabidiol in the treatment of tuberous sclerosis complex” (Jazz Pharmaceuticals Research UK Limited, priority 2017, dated 2025)", "key": {"[1]": {"tested_on": "Tsc2−/− Mouse Embryonic Fibroblast (MEF) cell lines", "assay": "Wound healing assay in Tsc2−/− MEFs", "format": "cell-based", "conditions": "CBD at 10 and 20 μM; FIG. 1 (A)", "procedure": "(§1) (ii) Tsc2−/− p53−/− and Tsc2+/+p53−/− mouse embryonic fibroblast (MEF) cell lines (now referred to as Tsc2−/− and Tsc2+/+, respectively).\n(§2) Tsc2−/− and Tsc2+/+ cell lines were cultured and maintained in DMEM supplemented with 10% (v/v) FBS and 1% (v/v) penicillin-streptomycin in a humidified incubator (5% CO2 at 37° C.). The AML −/− cell lines were cultured and maintained in DMEM supplemented with 15% (v/v) FBS and 1% (v/v) penicillin-streptomycin in a humidified incubator (5% CO2 at 37° C.). For hypoxia, cells were put into a Binder CB150 hypoxic chamber set at 1% 02 for the indicated time points\n(§3) The stock concentration of CBD was made to 20 mM in dimethyl sulfoxide (DMSO). […] The final concentration of the DMSO in the cell culture medium was at a maximum level of 0.05% (v/v).\nCells were seeded in 60 mm plates and left to reach 100% confluency. Cells were then synchronised in 1% (v/v) FBS DMEM for 24 h and “wounded” with a pipette tip. Dead cells were removed with PBS wash and then subsequently replaced with DMEM (10% (v/v) FBS). Cells were pre-treated for 30 min with either rapamycin, c-MET or STAT3 inhibitors (where indicated) before cytokine stimulation. Pictures were taken before treatment and 12-18 h after treatment using an inverted AMG EVOS microscope equipped with an Olympus camera."}, "AML 621-101 cells": {"tested_on": "AML 621-101 cells", "assay": "Wound healing assay in AML cells", "format": "cell-based", "procedure": "(i) Angiomyolipomas (AML) cells derived from a Tuberous Sclerosis Complex patient (621-101 cell-line), with a known loss of function of TSC2. […] Zeocin™ was purchased from LifeTechnologies (cat no: R25001) and was used to originally generate the stable cell line (by Prof. Lisa Henske) over two weeks of Zeocin™ selection and then for continued maintenance of the cells in tissue culture (at 100 μg/ml).\nas §2, §3\nCells were seeded in 60 mm plates and left to reach 100% confluency. Cells were then synchronised in 1% (v/v) FBS DMEM for 24 h and “wounded” with a pipette tip. Dead cells were removed with PBS wash and then subsequently replaced with DMEM (10% (v/v) FBS). […]"}, "Tsc2−/− MEFs": {"tested_on": "Tsc2−/− MEFs", "assay": "Tumour spheroid growth (soft agar) assay in Tsc2−/− MEFs", "format": "cell-based, mouse", "conditions": "10 μM CBD", "procedure": "as §1\nThe stock concentration of CBD was made to 20 mM in dimethyl sulfoxide (DMSO). CBD was added to culture media to final concentrations of either 5 μM or 10 μM, as indicated). The final concentration of the DMSO in the cell culture medium was at a maximum level of 0.05% (v/v).\nTwo-layered soft agar assays were carried out in 6-well plates. All cell lines were plated in complete DMEM media in 0.35% (v/v) agar at (3*10^5) over a 0.6% (v/v) agar layer. The agar was then overlaid with complete DMEM media and spheroids were grown for 14 days at 37° C. in 5% CO2. Media were changed twice a week and new drug was added to media. Pictures were taken using an inverted AMG EVOS microscope equipped with an Olympus camera. Volume of tumour spheroids was measured using ImageJ software."}, "HIF-1α protein": {"tested_on": "HIF-1α protein", "assay": "Western blot of hypoxia induced HIF-1α in Tsc2−/− MEFs", "format": "cell-based, mouse", "conditions": "CBD at 10 μM", "procedure": "as §2\nCells were washed in Phosphate Buffered Saline (PBS) and then lysed directly in sample buffer (62.5 mM Tris HCL, 50 mM DTT, 2% SDS (w/v), 10% Glycerol (w/v), 0.1% Bromophenol blue (w/v) pH 7.6) and sonicated for 5×20 s cycles on full power (30 amplitude microns). Samples were boiled at 95° C. for 10 min. Lysates were resolved by SDS-PAGE and proteins were transferred to polyvinylidene difluoride membranes.\nMembranes were blocked in 5% (w/v) dry milk powder dissolved in Tris-buffered saline containing 0.1% (v/v) Tween, then probed with primary antibody and horse radish peroxidase-conjugated secondary antibody. Proteins were visualized using Enhanced Chemiluminescent solution and Hyperfilm. Antibodies towards ribosomal protein S6 (rpS6), phospho-rpS6 (Ser235/236) were purchased from Cell Signaling Technology. Anti-HIF-1α was obtained from BD transduction laboratories. Statistical Analysis […]"}, "Panc-1 cells": {"tested_on": "Panc-1 cells", "assay": "MTT cell viability assay in Panc-1", "format": "cell-based", "conditions": "Homo sapiens, 50 μM CBD, 72 h, FIG. 6A, read-out: growth inhibition", "procedure": "PANC-1 is a human pancreatic carcinoma, epithelial-like cell line; PANC-1 cells are used as an in vitro model of non-endocrine pancreatic cancer for tumorigenicity studies.\nCell viability was analyzed by the MTT [3-(4,5-dimethylthiazol-2-yl)-2,5-diphenyl tetrazolium bromide] assay. Pancreatic cancer cells were seeded onto each well of a 96-well plate. After 72 h of treatment with CBD, MTT solution 5 mg/ml in PBS was added to each well. The plates were then incubated at 37° C. for an additional 4 h to allow MTT to form formazan crystals by reacting with metabolically active cells. The formazan crystals were solubilized in a 1N isopropanol/HCl 10% solution at 37° C., on a shaking table for 20 min. The absorbance values of the solution in each well were measured at 570 nm using a microplate reader. Cell viability was determined by the formula: cell viability (%)=(absorbance of the treated wells−absorbance of the blank control wells)/(absorbance of the negative control wells−absorbance of the blank control wells)×100%. All MTT experiments were performed in triplicate and repeated at least three times.\nThe growth inhibition induced by different concentrations (0.04-50 μM) of CBD on human Panc-1 at 72 h from the beginning of the treatment was evaluated with MTT assay."}, "[2]": {"conditions": "treatment resistant paediatric epilepsy; cited from earlier work"}, "[3]": {"conditions": "TSC patients having focal onset seizures; cited from earlier work"}}, "data": [{"smiles": "C=C(C)[C@@H]1CCC(C)=C[C@H]1c1c(O)cc(CCCCC)cc1O", "note": "[CBD, Cannabidiol]", "values": [{"measurement": "block of wound closure", "setting": "[1]", "result": "as effective as rapamycin"}, {"measurement": "reduction of wound closure", "setting": "AML 621-101 cells; 20 μM CBD", "result": 60, "unit": "%"}, {"measurement": "reduction of wound closure", "setting": "AML 621-101 cells; 5, 10 and 20 μM CBD, FIG. 1 (B)", "result": "effective at reducing wound closure"}, {"measurement": "inhibition of tumour spheroid diameter", "setting": "Tsc2−/− MEFs", "result": "Significance to inhibit tumour spheroid diameter was observed"}, {"measurement": "hypoxia induced expression of HIF-1α protein", "setting": "HIF-1α protein", "result": "sufficient to block hypoxia induced expression of HIF-1α protein"}, {"measurement": "inhibition at 50 µM", "setting": "Panc-1 cells", "result": 41, "unit": "%"}, {"measurement": "seizure frequency", "setting": "[2]", "result": "significant reductions in seizure frequency"}, {"measurement": "treatment of refractory epilepsy", "setting": "[3]", "result": "beneficial"}]}]}
